Laboratory results reported in EPA's ToxValDB 9.5.
Where “and” joins values, the source holds several entries; their conditions need not be identical. Equal entries are not always repeated.

Tests used:
Rattus norvegicus [1] = system: Rattus norvegicus
Rattus norvegicus [2] = settings: for LD50 / LC50: acute
[3] = reproduction developmental, duration: 103 weeks, oral, drinking water, generation: F0
[4] = reproduction developmental, duration: 104 weeks, oral, drinking water
[5] = reproduction developmental, duration: 59 days, oral, drinking water
[6] = subchronic, duration: 90 days, oral, diet, Sprague-Dawley

Compound: [Cd] [Cadmium]
- LOAEL (Rattus norvegicus [1]; short-term, duration: 2 weeks, inhalation, M/F, Fischer 344, respiratory): 0.088 mg/m3

Compound: CCN(CC)C(=O)c1cccc(C)c1 [DEET]
- NOAEL (Rattus norvegicus [1]; developmental, duration: 364 days, oral, diet, M/F, Sprague-Dawley, developmental): 100 mg/kg-day

Compound: O=C(Cl)C(Cl)Cl [Dichloroacetyl chloride]
- LD50 (Rattus norvegicus [2]; oral): 2460 mg/kg
- NOAEL (Rattus norvegicus [2]; subchronic, duration: 30 days, inhalation, Sprague-Dawley): 6.03 mg/m3

Compound: COC [Dimethyl ether]
- LC50 (Rattus norvegicus [2]; inhalation, Sprague-Dawley): 309000 mg/m3

Compound: CC(COCC(C)OC(=O)c1ccccc1)OC(=O)c1ccccc1 (stereo not drawn) [Dipropylene glycol, dibenzoate]
- LD50 (Rattus norvegicus [2]; dermal, Sprague-Dawley): > 2000 mg/kg
- LD50 (Rattus norvegicus [2]; oral, Sprague-Dawley): 5070 mg/kg and 3300 mg/kg and 3910 mg/kg
- NOAEL (Rattus norvegicus [2]; developmental, duration: 13 days, oral, gavage, Sprague-Dawley): 500 mg/kg-day and 250 mg/kg-day
- NOAEL (Rattus norvegicus [2]; reproduction developmental, duration: 38 weeks, oral, diet, Sprague-Dawley, generation: F0): 10000 ppm
- NOAEL (Rattus norvegicus [2]; reproduction developmental, duration: 38 weeks, oral, diet, Sprague-Dawley, generation: F1): 10000 ppm
- NOAEL (Rattus norvegicus [2]; reproduction developmental, duration: 13 days, oral, gavage, F, Sprague-Dawley): 1000 mg/kg-day
- NOAEL (Rattus norvegicus [2]; subchronic, duration: 13 weeks, oral, diet): 1000 mg/kg-day

Compound: O=CCCCC=O [Glutaraldehyde]
- NOAEL (Rattus norvegicus [1]; acute, duration: 1 days, inhalation, M/F, Fischer 344, respiratory): 0.512 mg/m3
- NOAEL (Rattus norvegicus [1]; chronic, duration: 2 years, oral, drinking water, M/F, Fischer 344, gastrointestinal): 4 mg/kg-day

Compound: C1CCCNCC1 [Hexamethyleneimine]
- LD50 (Rattus norvegicus [2]; oral, gavage, Sprague-Dawley): 9.6 mg/kg and ≥ 8 mg/kg and ≤ 11.4 mg/kg

Compound: CS(=O)(=O)O [Methanesulfonic acid]
- LD50 (Rattus norvegicus [2]; oral): ≥ 200 mg/kg and ≤ 400 mg/kg

Compound: COC(=O)CC(C)=O [Methyl acetoacetate]
- NOAEL (Rattus norvegicus [2]; developmental, oral, gavage, Crj:CD(SD)): > 1000 mg/kg-day
- NOAEL (Rattus norvegicus [2]; short-term, duration: 4 weeks, oral, gavage, F, Sprague-Dawley): 1000 mg/kg-day
- NOAEL (Rattus norvegicus [2]; short-term, duration: 4 weeks, oral, gavage, M, Sprague-Dawley): 1000 mg/kg-day

Compound: O=c1[n-]c(=O)[nH]c(=O)[nH]1.[Na+] [Monosodium cyanurate]
- NOAEL (Rattus norvegicus [2]; developmental, duration: 103 weeks, oral, drinking water): 5380 ppm
- NOAEL (Rattus norvegicus [2]; developmental, duration: 10 days, oral, gavage, COBSCD (Charles River)): > 5000 mg/kg-day
- NOAEL (Rattus norvegicus [2]; reproduction developmental, duration: 13 weeks, oral, drinking water): ≥ 5380 ppm
- LOAEL (Rattus norvegicus [2]; [3]): 5380 ppm
- NOAEL (Rattus norvegicus [2]; [3]): 1200 ppm
- NOAEL (Rattus norvegicus [2]; reproduction developmental, duration: 103 weeks, oral, drinking water, generation: F1): 5380 ppm
- NOAEL (Rattus norvegicus [2]; reproduction developmental, duration: 103 weeks, oral, drinking water, generation: F2): 5380 ppm
- LOAEL (Rattus norvegicus [2]; [4]): 5380 ppm
- NOAEL (Rattus norvegicus [2]; [4]): 2400 ppm
- NOAEL (Rattus norvegicus [2]; reproduction developmental, duration: 10 days, oral, gavage, F, COBSCD (Charles River)): > 5000 mg/kg-day
- LOAEL (Rattus norvegicus [2]; [5]): ≥ 2000 ppm
- NOAEL (Rattus norvegicus [2]; [5]): ≥ 400 ppm and ≤ 1200 ppm

Compound: CCC(C)Nc1ccc(NC(C)CC)cc1 (stereo not drawn) [N,N'-Bis(1-methylpropyl)-1,4-benzenediamine]
- LC50 (Rattus norvegicus [2]; inhalation, Sprague-Dawley): > 0.2 µg/mL
- LOAEL (Rattus norvegicus [2]; short-term, duration: 28 days, oral, gavage, Sprague-Dawley): 10 mg/kg-day
- LOAEL (Rattus norvegicus [2]; [6]): 500 mg/kg-day
- NOAEL (Rattus norvegicus [2]; [6]): 100 mg/kg-day

Compound: COc1ccccc1NC(=O)CC(C)=O [N-(2-Methoxyphenyl)-3-oxobutanamide]
- LD50 (Rattus norvegicus [2]; oral, gavage, Crj:CD): 1640 mg/kg

Compound: CCCCNS(=O)(=O)c1ccccc1 [N-Butylbenzenesulfonamide]
- LC50 (Rattus norvegicus [2]; Inhalation, Wistar): > 4070 mg/m3

Compound: O=C([O-])CCCCCCCC(=O)[O-].[Li+].[Li+] [Nonanedioic acid, dilithium salt]
- NOAEL (Rattus norvegicus [2]; subchronic, duration: 90 days, oral, gavage, Sprague-Dawley): 1000 mg/kg-day

Compound: O.O.O=c1nc([O-])n(Cl)c(=O)n1Cl.[Na+] [Sodium dichloroisocyanurate dihydrate]
- LD50 (Rattus norvegicus [2]; dermal, Sprague-Dawley): > 5000 mg/kg
- LD50 (Rattus norvegicus [2]; oral, gavage, Sprague-Dawley): 1820 mg/kg

Compound: NNC(=S)NN [Thiocarbazide]
- LD50 (Rattus norvegicus [2]; dermal, Wistar): > 500 mg/kg
- LC50 (Rattus norvegicus [2]; inhalation, Wistar): 50 mg/m3 and > 75.5 mg/m3

Compound: [Cl][Ti]([Cl])([Cl])[Cl] [Titanium tetrachloride]
- LOAEL (Rattus norvegicus [1]; chronic, duration: 104 weeks, inhalation, M/F, Crl:CD(SD), respiratory): 0.1 mg/m3
- LOAEL (Rattus norvegicus [1]; short-term, duration: 4 weeks, inhalation, M, Crl:CD(SD), respiratory): 5 mg/m3

Compound: c1ccc(B(c2ccccc2)c2ccccc2)cc1 [Triphenylborane]
- LD50 (Rattus norvegicus [2]; oral, gavage, Sprague-Dawley): 196 mg/kg

Compound: ClCOCCl [bis(Chloromethyl) ether]
- NOAEL (Rattus norvegicus [1]; chronic, duration: 6 months, inhalation, M, Sprague-Dawley, respiratory): 0.47 mg/m3

Compound: c1ccc(-c2ccccc2-c2ccccc2)cc1 [o-Terphenyl]
- LOAEL (% diet) (Rattus norvegicus [2]; short-term, duration: 14 days, oral, diet, Wistar): 0.2
- NOAEL (Rattus norvegicus [2]; subchronic, duration: 30 days, oral, diet, Sprague-Dawley): 100 mg/kg-day
